In US11338007B2, “Combination formulation of three antiviral compounds” (priority 2016, dated 2022):
Values belong to the compound of their own block, whether it stands above or below them.

Key:
[1] = Solid-state properties and open-container stability of sofosbuvir Forms 6 and 7; format: physicochemical
Description: In some embodiments, and the Examples presented herein, the tablet formulation includes sofosbuvir having Form 6 and, optionally, a trace amount of Form 7. […] Form 6 of sofosbuvir is the thermodynamically stable form and remains physically stable when suspended in water. Form 7 of Sofosbuvir, while physically stable in water for short periods of time, can be converted to Form 6 with prolonged stirring.

[2] = Food effect (high calorie/high-fat meals) on pharmacokinetics in human subjects (Table 28); format: in vivo; settings: tablets 400/100/100 mg; high calorie/high-fat meal
Experimental: The effect of food (high calorie/high-fat meals) on the pharmacokinetics of sofosbuvir/velpatasvir SSD/voxilaprevir SSD tablets (400/100/100 mg). […] As a result, sofosbuvir/velpatasvir SSD/voxilaprevir SSD tablets are administered with food.

[3] = Tablet dissolution, 50 mM sodium acetate buffer pH 5.0 with 2.0% w/v Polysorbate 80, USP Type II, 75 rpm; format: physicochemical; settings: for dissolution at 30 minutes: after 4 weeks open at 40° C./75% RH
Experimental: FIGS. 10-12 depict additional dissolution profiles for the sofosbuvir/velpatasvir SSD/voxilaprevir SSD tablets having the formulation described in Table 13 and which were used in phase 1, 2, and 3 clinical studies, where the dissolution testing was conducted at pH 5.0 acetate buffer containing 2.0% w/v polysorbate 80. Four batches of the sofosbuvir/velpatasvir SSD/voxilaprevir SSD tablets were tested, with Batch A manufactured at 100 kg and Batches B, C and D manufactured at 145 kg. All other aspects of the formulation and manufacturing process were otherwise equivalent. […] Moreover, for Batch A, the amount dissolved at 30 min remained between 98 and 100% for sofosbuvir, between 90 and 92% for velpatasvir SSD, and between 89 and 93% for voxilaprevir SSD. […] For Batch D, the amount dissolved at 30 min remained at 100% for sofosbuvir, between 90 and 91% for velpatasvir SSD, and between 89 and 91% for voxilaprevir SSD. Release of velpatasvir SSD and voxilaprevir SSD from the sofosbuvir/velpatasvir SSD/voxilaprevir SSD tablets associated with all four Batches was complete after 60 minutes.

[4] = Photostability of tablet cores and film-coated tablets per ICH Q1B (Table 12); format: physicochemical; settings: for level of degradation products: tablets film-coated to weight gains 2.1 to 5.4%; for loss after exposure to light: uncoated tablet cores
Experimental: Tablet cores and film-coated tablets were evaluated per ICH Q1B guidelines with a total of illumination of more than 1.2 million-lux hours and a total irradiance of more than 200 W·hr/m^2.

[5] = Chemical and physical stability of Formulation G film-coated tablets Lots A and B (Tables 11A, 11B); format: physicochemical; settings: packaged Formulation G tablets; 40° C./75% RH and 25° C./60% RH for 6 months
Experimental: In some embodiments, the film-coated tablets were packaged in 75 and 100 mL white HDPE bottles (Lots A and B, respectively, as described in Tables 11A, 11B) with 1 g silica gel desiccant canisters and a polyester fiber coil. The 75 and 100 mL HDPE bottles contained fourteen and twenty eight tablets, respectively. Each HDPE bottle was capped using a continuous thread, child-resistant polypropylene screw cap with an […], aluminum-faced line. The packaged tablets (14 and 28 counts) were evaluated for stability at 40° C./75% RH and 25° C./60% RH. Additionally, the 14-count bottles (without cap) were evaluated for stability under open conditions at 40° C./75% RH.

[6] = Tablet dissolution as a function of medium pH and composition (FIGS. 13-15); format: physicochemical; settings: for dissolution from tablets: pH 2.0, 4.5 and 6.8 buffers, FaSSIF and FeSSIF; for dissolution from tablets at 60 minutes: pH 4.0 and 5.0 containing 2.0% w/v polysorbate 80
[7] = BCS classification and pH dependence of solubility; format: physicochemical
[8] = Stress studies: stability of tablets made with stressed VEL SSD/VOX SSD (water, residual solvent, peroxide, reprocessing, potency; Tables 16-21); format: physicochemical
Experimental: The impact of the following stressors on the physical and chemical stability of the sofosbuvir/velpatasvir SSD/voxilaprevir SSD tablets were evaluated:
(i) Voxilaprevir SSD and velpatasvir SSD, and sofosbuvir/velpatasvir SSD/voxilaprevir SSD tablet water content;
(ii) Copovidone peroxide content in velpatasvir SSD and in voxilaprevir SSD (iii) Reprocessed velpatasvir SSD and voxilaprevir SSD;
(iv) Voxilaprevir SSD and velpatasvir SSD potency (varying the ratio of velpatasvir or voxilaprevir to copovidone); and
(v) Seeding sofosbuvir/velpatasvir SSD/voxilaprevir SSD tablets with crystalline voxilaprevir Form VIII and Form X drug substances.

[9] = Velpatasvir pharmacokinetics after single and multiple oral doses (Table 1); format: in vivo, human; settings: for t1/2 / tlast / tmax: median
Experimental: Following single and multiple oral doses of velpatasvir, maximum plasma concentrations occurred between 1.50 and 3.25 hours (median tmax).

[10] = Impact of desiccant and packaging configuration on tablet stability (Tables 24A-24C); format: physicochemical; settings: desiccant study (0, 1, 3 g); all conditions, 6 months;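 further: stability of tablets stored with different desiccant amounts and packaging configurations, evaluating physical and chemical stability plus dissolution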
[11] = Voxilaprevir Form VI pharmacokinetics after single and multiple doses in healthy subjects (Table 2); format: in vivo, human; settings: for Ctau: mean
Experimental: Pub. No. 2015/0175625 A1. Initial studies were conducted using the crystalline Form VI of voxilaprevir. As described previously, Form VI of voxilaprevir is characterized by an X-ray powder diffractogram comprising the following peaks (±0.2°): at 14.6, 15.4, and 20.0 °2θ, as determined on a diffractometer using Cu—Kα radiation. Following single and multiple oral doses of voxilaprevir, Form VI, maximum plasma concentrations occurred between 2.0 and 5.0 hours (median tmax). […] Steady-state concentrations of voxilaprevir, Form VI were achieved after 7 days of once-daily dosing across all dose levels (Table 2).

[12] = Relative bioavailability of voxilaprevir amorphous free acid tablets vs Form VI tablets, fasted and fed, healthy subjects (Table 3); format: in vivo, human; settings: human, in vivo, oral, single dose 100 mg, healthy subjects, fasted
Description: Accordingly, a spray dried dispersion of voxilaprevir in the amorphous free acid form was selected for incorporation into the tablet formulation.

[13] = SSD potency study, tablet Lots A-D, all conditions
[14] = tablets from VEL SSD 6.0% residual ethanol and VOX SSD 2.1% residual acetone, all conditions
[15] = tablets from VEL SSD 7.0% and VOX SSD 3.2% water content, all conditions

Compound: CC(C)OC(=O)[C@H](C)N[P@](=O)(OC[C@H]1O[C@@H](n2ccc(=O)[nH]c2=O)[C@](C)(F)[C@@H]1O)Oc1ccccc1 [Form 6, sofosbuvir]
hygroscopicity [1]: non-hygroscopic | photosensitivity [1]: not photosensitive | physical and chemical stability ([1]; open container, 1 month at 40° C./75% RH): physically and chemically stable

effect of food on plasma exposure [2]: does not substantially alter
Compound: C[C@@]1(F)[C@H](O)[C@@H](CO)O[C@H]1n1ccc(=O)[nH]c1=O [Formulation M1]

effect of food on plasma exposure [2]: does not substantially alter
Compound: C[C@H](NP(=O)(O)OC[C@H]1OC(n2ccc(=O)[nH]c2=O)[C@](C)(F)[C@@H]1O)C(=O)O (stereo partly drawn) [Formulation M2]

Compound: COC[C@H]1C[C@@H](c2ncc(-c3ccc4c(c3)COc3cc5c(ccc6nc([C@@H]7CC[C@H](C)N7C(=O)[C@@H](NC(=O)OC)C(C)C)[nH]c65)cc3-4)[nH]2)N(C(=O)[C@H](NC(=O)OC)c2ccccc2)C1 [velpatasvir, methyl {(2S)-1-[(2S,5S)-2-(9-{2-[(2S,4S)-1-{(2R)-2-[(methoxycarbonyl)amino]-2-phenylacetyl}-4-(methoxymethyl)pyrrolidin-2-yl]-1H-imidazol-5-yl}-1,11-dihydroisochromeno[4′,3′:6,7]naphtho[1,2-d]imidazol-2-yl)-5-methylpyrrolidin-1-yl]-3-methyl-1-oxobutan-2-yl}carbamate]
dissolution at 30 minutes ([3]; potency study Lot A): 86% | dissolution at 30 minutes ([3]; potency study Lot B): 91% | dissolution at 30 minutes ([3]; potency study Lots C and D): 89-93% | release of velpatasvir at 30 minutes ([3]; tablets containing neat amorphous velpatasvir free base): 62% | release of velpatasvir at 30 minutes ([3]; tablets containing velpatasvir SSD): 91% | level of degradation products [4]: 0.4% | loss after exposure to light [4]: up to 0.3% | total impurities/degradation products [5]: 0.0% | dissolution from tablets [6]: Incomplete dissolution | dissolution from tablets at 60 minutes [6]: complete dissolution | BCS Class [7]: BCS Class 4 | aqueous solubility, pH dependence [7]: pH-dependent | total impurities/degradation products [8, 13]: 0.0% | total impurities/degradation products ([8]; tablets from SSDs with copovidone 544 ppm (VEL SSD) and 655 ppm (VOX SSD) peroxides): 0.0% | total impurities/degradation products [8, 14]: 0.0% | total impurities/degradation products [8, 15]: 0.0% | CLss/F ([9]; multiple dose 5 mg, mean): 36,095.7 mL/h | Cmax ([9]; multiple dose 5 mg, mean): 28.3 ng/mL | t1/2 ([9]; multiple dose 5 mg): 13.73 h | tlast ([9]; multiple dose 5 mg): 24.00 h | tmax ([9]; multiple dose 5 mg): 2.00 h | CLss/F ([9]; multiple dose 50 mg, mean): 19,593.0 mL/h | Cmax ([9]; multiple dose 50 mg, mean): 411.4 ng/mL | Ctau ([9]; multiple dose 50 mg, mean): 37.9 ng/mL | t1/2 ([9]; multiple dose 50 mg): 13.02 h | tlast ([9]; multiple dose 50 mg): 24.00 h | CLss/F ([9]; multiple dose 150 mg, mean): 45,082.3 mL/h | Cmax ([9]; multiple dose 150 mg, mean): 669.4 ng/mL | Ctau ([9]; multiple dose 150 mg, mean): 63.4 ng/mL | t1/2 ([9]; multiple dose 150 mg): 15.15 h | tlast ([9]; multiple dose 150 mg): 24.00 h | CLss/F ([9]; multiple dose 450 mg, mean): 58,804.6 mL/h | Cmax ([9]; multiple dose 450 mg, mean): 1195.7 ng/mL | Ctau ([9]; multiple dose 450 mg, mean): 127.7 ng/mL | t1/2 ([9]; multiple dose 450 mg): 11.74 h | tlast ([9]; multiple dose 450 mg): 24.00 h | tmax ([9]; multiple dose 450 mg): 3.00 h | mean plasma concentration at 24 hours postdose relative to protein-adjusted EC50 for genotype 1 to 6 HCV replicons ([9]; multiple once-daily doses greater than 5 mg): above | CL/F ([9]; single dose 5 mg, mean): 58,398.0 mL/h | tlast ([9]; single dose 5 mg): 24.00 h | CL/F ([9]; single dose 50 mg, mean): 19,188.4 mL/h | Clast ([9]; single dose 50 mg, mean): 2.34 ng/mL | tlast ([9]; single dose 50 mg): 72.00 h | CL/F ([9]; single dose 100 mg, mean): 24,617.9 mL/h | Clast ([9]; single dose 100 mg, mean): 2.85 ng/mL | tlast ([9]; single dose 100 mg): 95.00 h | CL/F ([9]; single dose 150 mg, excluding one patient, mean (% CV)): ^bMean (% CV) CL/F for the VEL 150 mg group (excluding one patient) was 31,403.8 (40.5) mL/h. | CL/F ([9]; single dose 150 mg, mean): 72,185.5 mL/h | Clast ([9]; single dose 150 mg, mean): 2.23 ng/mL | tlast ([9]; single dose 150 mg): 96.00 h | CL/F ([9]; single dose 450 mg, mean): 53,676.4 mL/h | Clast ([9]; single dose 450 mg, mean): 3.28 ng/mL | tlast ([9]; single dose 450 mg): 96.00 h

dissolution at 30 minutes ([3]; potency study Lot A): 85% | dissolution at 30 minutes ([3]; potency study Lot B): 91% | dissolution at 30 minutes ([3]; potency study Lots C and D): 92% | voxilaprevir released at 30 minutes ([3]; tablets containing 0% w/w crystalline voxilaprevir): 91% | voxilaprevir released at 30 minutes ([3]; tablets containing neat amorphous voxilaprevir free acid): 76% | voxilaprevir released at 30 minutes ([3]; tablets containing voxilaprevir SSD): 91% | voxilaprevir released at 30 minutes ([3]; tablets spiked with 5% w/w Form VIII or Form X): 84% | voxilaprevir released at 30 minutes ([3]; tablets spiked with 10% w/w Form VIII or Form X): 80% | voxilaprevir released at 30 minutes ([3]; tablets spiked with 20% w/w Form VIII or Form X): 73% | level of degradation products [4]: 0.0% | loss after exposure to light [4]: no change | dissolution from tablets [6]: Incomplete dissolution | dissolution from tablets at 60 minutes [6]: complete dissolution | BCS Class [7]: BCS Class 2 | aqueous solubility, pH dependence [7]: pH-dependent | total impurities/degradation products [10]: 0.0% | total impurities/degradation products [8, 13]: 0.7% | total impurities/degradation products [8, 14]: 0.0% | total impurities/degradation products [8, 15]: 0.0%
Compound: CC[C@@H]1[C@@H]2CN(C(=O)[C@H](C(C)(C)C)NC(=O)O[C@@H]3C[C@H]3CCCCC(F)(F)c3nc4ccc(OC)cc4nc3O2)[C@@H]1C(=O)N[C@]1(C(=O)NS(=O)(=O)C2(C)CC2)C[C@H]1C(F)F [voxilaprevir, (1aR,5S,8S,9S,10R,22aR)-5-tert-butyl-N-{(1R,2R)-2-(difluoromethyl)-1-[(1-methylcyclopropanesulfonyl)carbamoyl]cyclopropyl}-9-ethyl-18,18-difluoro-14-methoxy-3,6-dioxo-1,1a,3,4,5,6,9,10,18,19,20,21,22,22a-tetradecahydro-8H-7,10-methanocyclopropa[18,19][1,10,3,6]dioxadiazacyclononadecino[11,12-b]quinoxaline-8-carboxamide]

Ctau ([11]; multiple dose 30 mg): 1.9 ng/mL | Ctau ([11]; multiple dose 100 mg): 5.7 ng/mL | Ctau ([11]; multiple dose 300 mg): 10.0 ng/mL | steady-state concentrations achieved after ([11]; once-daily dosing, all dose levels): 7 days | t1/2 ([11]; single dose 300 mg, median): 35.49 h | AUC(0-inf) [12]: 326 ng·h/mL | Cmax ([12]; read-out: Cmax): 21.7 ng/mL
Compound: CC[C@@H]1[C@@H]2CN(C(=O)[C@H](C(C)(C)C)NC(=O)O[C@@H]3C[C@H]3CCCCC(F)(F)c3nc4ccc(OC)cc4nc3O2)[C@@H]1C(=O)N[C@]1(C(=O)NS(=O)(=O)C2(C)CC2)C[C@H]1C(F)F [voxilaprevir, Form VI, voxilaprevir]
